Test results taken from the supplement of paper PMC7394473.

Legend:
Conditions in all cases: 72 h
U2OS [1] = test: GR50 (concentration giving GR = 0.5)
Description: (§1)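 U2OS cells treated with full dose titrations of drug; live and dead cells counted by STACK microscopy (mKate2 nuclei, SYTOX Green) at 72 h, biological triplicates. GR and FV dose responses were fitted with 4-parameter logistic models (GR lower bound -1). GRADE (0-100) is the rescaled angle of a linear fit of FV versus GR at doses with GR >= 0, giving the percentage of the response due to cell death.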

U2OS [2] = test: fractional viability (live cells / total cells); higher = less cell death
Description: (§2)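 U2OS::Nuc-mKate2 cells seeded in 96-well plates and treated with eight- to ten-point half-log or log dilutions of drug in the presence of 50 nM SYTOX Green. Live (mKate2+) and dead (SYTOX+) cells were counted by IncuCyte STACK live-cell microscopy at 72 h; biological triplicates. GR is the normalised growth-rate inhibition value (Hafner 2016; 1 = untreated growth, <0 = population shrinking). FV is live/(live+dead) cells, not normalised.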

U2OS [3] = test: FV IC50 (concentration giving fractional viability 0.5); higher = less potent killing
Description: as §1

U2OS [4] = test: drug GRADE (percent of response due to cell death) (% (0-100)); higher = more death-driven response
Description: as §1

U2OS [5] = test: normalized growth rate inhibition value (GR) relative to untreated cells (GR value (dimensionless, 1 = untreated growth)); higher = less growth inhibition
Description: as §2

U2OS [6] = test: GRmin (fitted minimal GR value at highest effect) (GR value (dimensionless)); higher = less efficacious
Description: as §1

SMILES	GR50 (U2OS [1]) [µM]	fractional viability (U2OS [2]; 0.01 µM)	fractional viability (U2OS [2]; 0.0316 µM)	fractional viability (U2OS [2]; 0.1 µM)	fractional viability (U2OS [2]; 0.316 µM)	fractional viability (U2OS [2]; 1 µM)	fractional viability (U2OS [2]; 3.16 µM)	fractional viability (U2OS [2]; 10 µM)	fractional viability (U2OS [2]; 31.6 µM)	FV IC50 (U2OS [3]) [µM]	drug GRADE (U2OS [4])	normalized growth rate inhibition value (U2OS [5]; 0.01 µM)	normalized growth rate inhibition value (U2OS [5]; 0.0316 µM)	normalized growth rate inhibition value (U2OS [5]; 0.1 µM)	normalized growth rate inhibition value (U2OS [5]; 0.316 µM)	normalized growth rate inhibition value (U2OS [5]; 1 µM)	normalized growth rate inhibition value (U2OS [5]; 3.16 µM)	normalized growth rate inhibition value (U2OS [5]; 10 µM)	normalized growth rate inhibition value (U2OS [5]; 31.6 µM)	fractional viability (U2OS [2]; 0.00316 µM)	GRmin (U2OS [6])	normalized growth rate inhibition value (U2OS [5]; 0.00316 µM)	fractional viability (U2OS [2]; 0.00100578 µM)	fractional viability (U2OS [2]; 0.00317827 µM)	fractional viability (U2OS [2]; 0.0100433 µM)	fractional viability (U2OS [2]; 0.0317369 µM)	fractional viability (U2OS [2]; 0.100289 µM)	fractional viability (U2OS [2]; 0.316912 µM)	fractional viability (U2OS [2]; 1.00144 µM)	fractional viability (U2OS [2]; 3.16456 µM)	normalized growth rate inhibition value (U2OS [5]; 0.00100578 µM)	normalized growth rate inhibition value (U2OS [5]; 0.00317827 µM)	normalized growth rate inhibition value (U2OS [5]; 0.0100433 µM)	normalized growth rate inhibition value (U2OS [5]; 0.0317369 µM)	normalized growth rate inhibition value (U2OS [5]; 0.100289 µM)	normalized growth rate inhibition value (U2OS [5]; 0.316912 µM)	normalized growth rate inhibition value (U2OS [5]; 1.00144 µM)	normalized growth rate inhibition value (U2OS [5]; 3.16456 µM)
CNc1ccc2oc(C[C@H]3O[C@@]4(CC[C@H]3C)O[C@H]([C@H](C)C(=O)c3ccc[nH]3)[C@H](C)C[C@H]4C)nc2c1C(=O)O	1.69	0.982	0.983	0.976	0.97	0.959	0.848	0.418	0.0921	8.33	23.9	1.02	1.01	0.913	0.846	0.612	0.31	-0.171	-0.602	–	–	–	–	–	–	–	–	–	–	–	–	–	–	–	–	–	–	–
Cc1ccc(C(=O)N(CCCN)[C@@H](c2oc3cc(Cl)ccc3c(=O)c2Cc2ccccc2)C(C)C)cc1	–	0.758	0.808	0.764	0.827	0.782	0.436	0.0037	0.000513	2.85	53.2	-0.165	0.0886	-0.222	0.0837	-0.166	-0.182	-0.945	-0.883	0.855	-0.9	0.205	–	–	–	–	–	–	–	–	–	–	–	–	–	–	–	–
CN(C)CC[C@H](CSc1ccccc1)Nc1ccc(S(=O)(=O)NC(=O)c2ccc(N3CCN(Cc4ccccc4-c4ccc(Cl)cc4)CC3)cc2)cc1[N+](=O)[O-] [ABT-737]	2.13	–	–	–	–	–	–	0.407	–	6.86	65.6	–	–	–	–	–	–	-0.162	–	–	–	–	0.986	0.984	0.983	0.982	0.954	0.913	0.82	0.684	0.92	1.02	1.02	0.95	0.94	0.817	0.744	0.358
NC(=O)Nc1cc(-c2cccc(F)c2)sc1C(=O)N[C@H]1CCCNC1 [AZD7762]	0.11	–	–	–	–	–	–	0.0629	–	0.51	20	–	–	–	–	–	–	-0.718	–	–	-0.614	–	0.991	0.992	0.992	0.988	0.894	0.548	0.398	0.0972	1.04	1.04	1.19	1.12	0.423	-0.126	-0.318	-0.622
CCN1CCN(Cc2ccc(Nc3ncc(F)c(-c4cc(F)c5nc(C)n(C(C)C)c5c4)n3)nc2)CC1 [Abemaciclib]	0.299	–	–	–	–	–	–	0.0044	–	3.61	17.3	–	–	–	–	–	–	-0.928	–	–	–	–	0.99	0.992	0.993	0.992	0.986	0.986	0.82	0.615	1.03	0.796	0.854	0.834	0.613	0.583	-0.0282	-0.2
CC[C@@H]1C(=O)N(C)c2cnc(Nc3ccc(C(=O)NC4CCN(C)CC4)cc3OC)nc2N1C1CCCC1 [BI2536]	–	0.45	0.485	0.413	0.388	0.323	0.168	0.0141	0.00423	0.0275	20.9	-0.371	-0.116	-0.354	-0.184	-0.415	-0.378	-0.876	-0.822	0.517	–	0.0188	–	–	–	–	–	–	–	–	–	–	–	–	–	–	–	–
O=C(NCCCNc1nc(Nc2cccc(NC(=O)N3CCCC3)c2)ncc1I)c1cccs1 [BX795]	1.46	0.982	0.975	0.974	0.971	0.94	0.716	0.661	0.102	11.6	34.3	0.987	1.11	0.954	1.01	0.723	-0.0493	-0.146	-0.574	–	-0.438	–	–	–	–	–	–	–	–	–	–	–	–	–	–	–	–	–
O=C(/C=C/c1cccc(S(=O)(=O)Nc2ccccc2)c1)NO [Belinostat]	0.332	0.969	0.972	0.947	0.878	0.466	0.096	0.0497	0.0293	0.93	63.3	0.939	0.975	0.836	0.498	-0.0168	-0.527	-0.646	-0.72	–	-0.733	–	–	–	–	–	–	–	–	–	–	–	–	–	–	–	–	–
